Reference: patent US12728116B2, “Methods of treating multiple sclerosis” (Vanda Pharmaceuticals Inc., priority 2021, dated 2026)
Values joined by “and” are separate entries in the source; they are usually repeats but may differ in a detail not shown here. Equal entries are not always repeated.

Legend:
Type in all cases: in vivo, human
[1] = system: adult subjects with relapsing MS; assay: Confirmed relapses up to EOS - annualized relapse rate (ARR), phase III study; conditions: for Total number of relapses (confirmed, up to EOS): total time 1119 / 1137 years; for Mean estimate (ARR), confirmed relapses up to EOS, negative binomial regression: ponesimod 20 mg, teriflunomide 14 mg
Method: Primary efficacy variable/primary timepoint: The primary endpoint was annualized relapse rate (ARR) up to the end of study (EOS) defined as the number of confirmed relapses per subject-year. All available data up to EOS, regardless of treatment discontinuation was included (ITT approach).
A generalized linear model with negative binomial distribution was fitted for the primary efficacy endpoint ARR. Two-sided hypotheses were expressed in terms of the model parameters μP20 mg and μT14 mg.
The primary statistical analysis of the ARR endpoint was performed on the FAS using a negative binomial model for confirmed relapses, with the stratification variables prior use of disease-modifying therapies (DMTs) and EDSS category as well as the number of relapses in the year prior to study entry, included in the model and time in the study as an offset variable. Sensitivity analyses was performed on the PPS and also based on different subgroups derived from baseline variables.
A relapse is defined as new, worsening or recurrent neurological symptoms that occur at least 30 days after the onset of a preceding relapse, and that last at least 24 hours, in the absence of fever or infection.
A relapse was confirmed by the treating neurologist only when the subjects' symptoms were accompanied by an increase in EDSS/FS (functional system) scores, which were consistent with the subject's symptoms, from a previous clinically stable EDSS/FS assessment (i.e., performed at least 30 days after the onset of any previous relapse), obtained by the efficacy assessor and consistent with the following: • An increase of at least half a step (0.5 points; unless EDSS=0, then an increase of at least 1.0 points is required) or • An increase of at least 1.0 point in at least two FS scores, or • An increase of at least 2.0 points in at least one FS score (excluding bladder/bowel and cerebral).
The primary statistical analysis was performed up to EOS on the FAS using a negative binomial regression model for confirmed relapses, with treatment as a factor and the binary stratification variables (EDSS≤3.5 versus EDSS>3.5; DMTs within last 2 years prior to randomization [Yes/No]) and the number of relapses in the year prior to study entry (categories≤1 (or missing) and […]) included in the model. The model also included an offset variable defined as the log of time on study (in years) from randomization up to EOS.
This subgroup analysis examined patients with EDSS≤3 (up to moderate disability in one function, or mild disability in three or four functions; no impairment to walking), and/or who were treatment naïve.
(§1) ARR differences and mean number of CUALs were examined using a negative binomial regression model with adjusting for the log time in the study (in years) as an offset.

[2] = system: adult subjects with relapsing MS; assay: Combined unique active lesions (CUAL) on brain MRI from baseline to Week 108; conditions: for CUAL mean estimate (Lesions per year), negative binomial regression: ponesimod 20 mg, teriflunomide 14 mg; for Total number of lesions (CUAL): total time 1072 / 1067 years; for Raw mean lesions/year (CUAL): baseline to week 108
Method: Secondary efficacy variables and testing strategy: Four secondary efficacy endpoints were analyzed as per the statistical testing strategy outlined in FIG. 1. • Change from baseline to Week 108 in fatigue-related symptoms as measured by the symptoms domain of the FSIQ-RMS patient-reported outcome [Fatigue] • Cumulative number of combined unique active lesions from baseline to Week 108 on brain MRI [CUALs] • Time to first 12-week confirmed disability accumulation (CDA) from baseline to EOS on Expanded Disability Status Scale (EDSS) [12-week CDA] • Time to first 24-week CDA from baseline to EOS on EDSS [24-week CDA]
CUAL are new Gd+T1 lesions plus new or enlarging T2 lesions (without double-counting of lesions).
MRI scans were performed at Visits 2 (Baseline). 10 (Week 60), and 14 (EOT) and at any unscheduled visit (U1, U2, etc.). If applicable, MRI scans also were performed at the corresponding visits in the PTOP (Visits 10A and 14A). Testing at all visits were performed up to 7 days prior to or after the visit date.
T1-weighted imaging before and after i.v. administration of 0.1 mmol/kg body weight (=0.2 mL/kg) of Gd as well as PD-T2-weighted imaging was performed. Gd may cause nausea and vomiting and in very rare cases allergic reactions that could require immediate anti-anaphylactic therapy (such as steroids, epinephrine/adrenaline, etc.).
as §1

[3] = system: adult subjects with relapsing MS; assay: 12-lead ECG heart rate and first-dose effects on Day 1; conditions: for Mean heart rate change compared to pre-dose at 2-hours post dose / Subjects with asymptomatic post-dose HR≤40 bpm: Day 1; for Mean heart rate change compared to pre-dose at 2-hours post dose: 12-lead ECG, Safety Set; for Subjects with asymptomatic post-dose HR≤40 bpm: all with pre-treatment HR <55 bpm
Method: As per up-titration regimen, the dose of ponesimod on Day 1 is 2 mg.

[4] = ponesimod 20 mg vs teriflunomide 14 mg
[5] = baseline to Week 108, Full Analysis Set

| Compound | ARR rate ratio (RR), ponesimod vs teriflunomide ([1]; EDSS≤3 subgroup) | Reduction of ARR vs teriflunomide ([1]; EDSS≤3 subgroup) | Raw ARR ([1]; Full Analysis Set) | Total number of relapses (confirmed, up to EOS) ([1]; Full Analysis Set) | Reduction of ARR (confirmed relapses) up to EOS compared to teriflunomide [1, 4] | Treatment effect (rate ratio) on ARR, ponesimod vs teriflunomide ([1]; ponesimod 20 mg vs teriflunomide 14 mg, Full Analysis Set) | Mean estimate (ARR), confirmed relapses up to EOS, negative binomial regression ([1]; Full Analysis Set) | CUAL treatment effect (Rate Ratio), ponesimod vs. teriflunomide [2, 5] | CUAL mean estimate (Lesions per year), negative binomial regression [2, 5] | Total number of lesions (CUAL) ([2]; baseline to Week 108) | Raw mean lesions/year (CUAL) [2] | CUALs, benefit compared with teriflunomide in subgroups ([2]; patients with EDSS≤3 and treatment-naïve patients) | Reduction of number of CUALs between baseline and week 108 compared to teriflunomide [2, 4] | 2nd or higher degree AV block ([3]; Day 1, first dose) | Subjects meeting discharge criteria at 4 hours post-dose ([3]; Day 1, first dose) | ECG HR effect: time of nadir post-dose ([3]; Day 1, ponesimod 2 mg) | Mean heart rate change compared to pre-dose at 2-hours post dose [3] | Subjects with asymptomatic post-dose HR≤40 bpm [3] |
| --- | --- | --- | --- | --- | --- | --- | --- | --- | --- | --- | --- | --- | --- | --- | --- | --- | --- | --- |
| CCC/N=C1\S/C(=C\c2ccc(OC[C@H](O)CO)c(Cl)c2)C(=O)N1c1ccccc1C [Ponesimod, (R)-5-[3-chloro-4-(2,3-dihydroxy-propoxy)-benz[Z]ylidene]-2-([Z]-propylimino)-3-o-tolyl-thiazolidin-4-one] | 0.530 | 47% | 0.216 | 242 | 30.5% | 0.695 | 0.202 | 0.44 and 0.444 | 1.405 Lesions per year | 1671 | 1.559 lesions/year | benefited from ponesimod compared with teriflunomide | 56% | No 2nd or higher degree AV block was observed | ca. 99% | 2 h | −8.7 bpm | 3 |
| C/C(O)=C(\C#N)C(=O)Nc1ccc(C(F)(F)F)cc1 [Teriflunomide, reference compound] | – | – | 0.303 | 344 | – | – | 0.290 | – | 3.164 Lesions per year | 3714 | 3.481 lesions/year | – | – | – | – | – | −1.7 bpm | none |
